± gives the expanded uncertainty stated by the source.
Test: xn = mol fraction of the nth substance listed
Settings: 100 kPa, Liquid, Vibrating tube method

mass density (293.15 K, x1 = 0.01)	mass density (293.15 K, x1 = 0.03)	mass density (293.15 K, x1 = 0.05)	mass density (303.15 K, x1 = 0.01)	mass density (303.15 K, x1 = 0.03)	mass density (303.15 K, x1 = 0.05)	mass density (313.15 K, x1 = 0.01)	mass density (313.15 K, x1 = 0.03)	mass density (313.15 K, x1 = 0.05)	mass density (323.15 K, x1 = 0.01)	mass density (323.15 K, x1 = 0.03)	mass density (323.15 K, x1 = 0.05)	mass density (333.15 K, x1 = 0.01)	mass density (333.15 K, x1 = 0.03)	mass density (333.15 K, x1 = 0.05)	SMILES
1109.5 ± 0.3 kg/m3	1320.7 ± 0.4 kg/m3	1519.4 ± 0.6 kg/m3	1105.6 ± 0.3 kg/m3	1314.9 ± 0.4 kg/m3	1512.1 ± 0.6 kg/m3	1101 ± 0.3 kg/m3	1308.9 ± 0.4 kg/m3	1504.5 ± 0.6 kg/m3	1096 ± 0.3 kg/m3	1302.5 ± 0.4 kg/m3	1496.9 ± 0.6 kg/m3	1090.6 ± 0.3 kg/m3	1295.9 ± 0.4 kg/m3	1489.1 ± 0.6 kg/m3	[Cs+].[I-] [cesium iodide] + O
1045.7 ± 0.2 kg/m3	1137.7 ± 0.3 kg/m3	1227.4 ± 0.3 kg/m3	1042.6 ± 0.2 kg/m3	1133.7 ± 0.3 kg/m3	1222.6 ± 0.3 kg/m3	1038.7 ± 0.2 kg/m3	1129.1 ± 0.3 kg/m3	1217.4 ± 0.3 kg/m3	1034.2 ± 0.2 kg/m3	1123.9 ± 0.3 kg/m3	1211.7 ± 0.3 kg/m3	1029.2 ± 0.2 kg/m3	1118.4 ± 0.3 kg/m3	1205.7 ± 0.3 kg/m3	[Br-].[K+] [potassium bromide] + O
1088.1 ± 0.2 kg/m3	1259.7 ± 0.4 kg/m3	1423.2 ± 0.5 kg/m3	1084.2 ± 0.2 kg/m3	1254.2 ± 0.4 kg/m3	1416.3 ± 0.5 kg/m3	1079.8 ± 0.2 kg/m3	1248.4 ± 0.4 kg/m3	1409.2 ± 0.5 kg/m3	1074.9 ± 0.3 kg/m3	1242.3 ± 0.4 kg/m3	1402 ± 0.5 kg/m3	1069.6 ± 0.3 kg/m3	1235.9 ± 0.4 kg/m3	1394.6 ± 0.5 kg/m3	[I-].[Rb+] [rubidium iodide (RbI)] + O
1070.9 ± 0.2 kg/m3	1210.1 ± 0.3 kg/m3	1349.9 ± 0.4 kg/m3	1068 ± 0.2 kg/m3	1206.2 ± 0.3 kg/m3	1345.4 ± 0.4 kg/m3	1064.3 ± 0.2 kg/m3	1201.7 ± 0.3 kg/m3	1340.4 ± 0.4 kg/m3	1059.9 ± 0.3 kg/m3	1196.6 ± 0.3 kg/m3	1334.9 ± 0.4 kg/m3	1053 ± 0.3 kg/m3	1190.9 ± 0.3 kg/m3	1329.1 ± 0.4 kg/m3	[Cs+].[F-] [cesium fluoride (CsF)] + O
1053.3 ± 0.2 kg/m3	1160.8 ± 0.3 kg/m3	1268.1 ± 0.4 kg/m3	1049.8 ± 0.2 kg/m3	1156.3 ± 0.3 kg/m3	1262.7 ± 0.4 kg/m3	1045.7 ± 0.2 kg/m3	1151 ± 0.3 kg/m3	1257.2 ± 0.4 kg/m3	1041.2 ± 0.2 kg/m3	1146.1 ± 0.3 kg/m3	1251.4 ± 0.4 kg/m3	1036.2 ± 0.2 kg/m3	1140.7 ± 0.3 kg/m3	1245.5 ± 0.4 kg/m3	[I-].[Li+] [lithium iodide] + O

From the NIST ThermoML archive (doi:10.1021/je500420g)
